According to patent US20170232043A1, “BACTERIA ENGINEERED TO TREAT DISORDERS INVOLVING THE CATABOLISM OF A BRANCHED CHAIN AMINO ACID” (priority 2015, published 2017):

Assays:
[1] = tested on: ATC-inducible Ptet-GFP reporter construct; assay: ATC-inducible Ptet-GFP reporter construct, fluorescence in plate reader (Example 28); type: cell-based, E. coli Nissle; conditions: two-fold decreased inducer, across a range of concentrations
[2] = tested on: Pma: amino acid deaminase gene from P. mirabilis; conditions: relative within the enzyme; cited from earlier work
[3] = tested on: Pm1: amino acid deaminase gene from P. mirabilis KCTC 2566; conditions: relative within the enzyme; cited from earlier work
[4] = tested on: LAD: L-amino acid deaminase of P. vulgaris; conditions: relative within the enzyme; cited from earlier work
[5] = tested on: rat; conditions: cited from earlier work
[6] = molecular target: LivK (Escherichia coli, UniProt P04816); conditions: cited from earlier work
Sequence of LivK (P04816 24-369): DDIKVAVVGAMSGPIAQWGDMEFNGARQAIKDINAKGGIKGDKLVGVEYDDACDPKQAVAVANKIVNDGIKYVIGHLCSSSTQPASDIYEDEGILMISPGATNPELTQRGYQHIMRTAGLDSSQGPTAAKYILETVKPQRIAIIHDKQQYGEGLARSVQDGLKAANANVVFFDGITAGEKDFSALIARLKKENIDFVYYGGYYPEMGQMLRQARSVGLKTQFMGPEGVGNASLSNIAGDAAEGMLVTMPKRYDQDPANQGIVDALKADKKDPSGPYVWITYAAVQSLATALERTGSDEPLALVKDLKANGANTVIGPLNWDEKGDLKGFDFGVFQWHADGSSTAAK

[7] = tested on: nitric oxide inducible PnsrR-GFP reporter construct; assay: Nitric oxide inducible PnsrR-GFP reporter construct, fluorescence in plate reader (Example 28); type: cell-based, E. coli Nissle; conditions: DETA-NO as NO donor, two-fold decreased inducer, across a range of concentrations
[8] = tested on: leucine; assay: in vitro leucine degradation assay (leucine in culture medium by LC-MS/MS); type: cell-based, E. coli Nissle

Molecule | amino acid deaminase activity of Pma, percentage [2] [%] | amino acid deaminase activity of Pm1, percentage [3] [%] | amino acid deaminase activity of LAD, percentage [4] [%] | also measured
Cc1c2c(c(O)c3c(O)cccc13)C(=O)[C@]1(O)C(=O)C(C(N)=O)=C(O)[C@@H](N(C)C)[C@@H]1C2 [ATC, anhydrotetracycline] |  |  |  | expression of GFP (relative florescence units) [1]: able to induce the expression of GFP
C[C@H](N)C(=O)O [Ala] | 0.6 | 9 | 3.5 | 
N=C(N)NCCC[C@H](N)C(=O)O [Arg] | 28.2 | 51.2 | 27.3 | 
NC(=O)C[C@H](N)C(=O)O [Asn] | 0 | 5.2 | 43.6 | 
N[C@@H](CC(=O)O)C(=O)O [Asp] | 10.9 | 2.6 | 55.4 | 
N[C@@H](CS)C(=O)O [Cys] | 1.9 | 9 |  | 
NC(=O)CC[C@H](N)C(=O)O [Gln] | 1.3 | 5.2 | 1.1 | 
N[C@@H](CCC(=O)O)C(=O)O [Glu] | 0.6 | 35.8 | 1.1 | 
NCC(=O)O [Gly] | 1.3 | 7.6 |  | 
N[C@@H](Cc1c[nH]cn1)C(=O)O [His] | 0 | 100 | 79.9 | 
CC[C@H](C)[C@H](N)C(=O)O [Ilu, isoleucine] | 2.6 | 6.4 |  | 
CC(C)CO [Isobutanol] |  |  |  | Oral NOAEL* (rat) ([5]; No-Observed-Adverse-Effect): >1450 mg/kg/day
CC(C)CCO [Isopentanol] |  |  |  | Oral LD50 (rat) [5]: >5000 mg/kg
CC(C)C[C@H](N)C(=O)O [Leu, leucine] | 41.7 | 7.6 | 105 | Kd [6]: ~1000 nM
NCCCC[C@H](N)C(=O)O [Lys] | 1.9 | 7.6 | 3.5 | 
CSCC[C@H](N)C(=O)O [Met] | 16.7 | 2.6 | 100 | 
NCCN(CCN)[N+]([O-])=NO [NO] |  |  |  | expression of GFP (relative florescence units) [7]: able to induce the expression of GFP
N[C@@H](Cc1ccccc1)C(=O)O [Phe] | 100 | 46.2 | 37.4 | 
O=C(O)[C@@H]1CCCN1 [Pro] | 3.2 | 14.2 | 0.7 | 
N[C@@H](CO)C(=O)O [Ser] | 1.3 | 3.8 |  | 
C[C@@H](O)[C@H](N)C(=O)O [Thr] | 0 | 12.8 | 1.1 | 
N[C@@H](Cc1c[nH]c2ccccc12)C(=O)O [Trp] | 3.2 | 10.2 | 41.6 | 
N[C@@H](Cc1ccc(O)cc1)C(=O)O [Tyr] | 0.6 | 9 | 92.8 | 
CC(C)[C@H](N)C(=O)O [Val, valine] | 1.3 | 6.4 |  | 
LeuDH: leucine dehydrogenase from Pseudomonas aeruginosa, expressed in the engineered strain (protein, Synthetic: leuDH codon-optimized nucleotide sequence, leucine dehydrogenase from Pseudomonas aeruginosa, expressed in the engineered strain) MFDMMDAARLEGLHLAQDPATGLKAIIAIHSTRLGPALGGCRYLPYPNDEAAIGDAIRLAQGMSYKAALAGLEQGGGKAVIIRPPHLDNRGALFEAFGRFIESLGGRYITAVDSGTSSADMDCIAQQTRHVTSTTQAGDPSPHTALGVFAGIRASAQARLGSDDLEGLRVAVQGLGHVGYALAEQLAAVGAELLVCDLDPGRVQLAVEQLGAHPLAPEALLSTPCDILAPCGLGGVLTSQSVSQLRCAAVAGAANNQLERPEVADELEARGILYAPDYVINSGGLIYVALKHRGADPHSITAHLARIPARLTEIYAHAQADHQSPARIADRLAERILYGPQ |  |  |  | rate of leucine degradation ([8]; background strain Nissle ΔleuE, lacZ:tet-livKHMGF): about 160 nmol/10^9 CFU/hour
BrnQ: low affinity BCAA transporter (protein, BCAA transporter BrnQ) MTHQLRSRDIIALGFMTFALFVGAGNIIFPPMVGLQAGEHVWTAAFGFLITAVGLPVLTVVALAKVGGGVDSLSTPIGKVAGVLLATVCYLAVGPLFATPRTATVSFEVGIAPLTGDSALPLFIYSLVYFAIVILVSLYPGKLLDTVGNFLAPLKIIALVILSVAAIIWPAGSISTATEAYQNAAFSNGFVNGYLTMDTLGAMVFGIVIVNAARSRGVTEARLLTRYTVWAGLMAGVGLTLLYLALFRLGSDSASLVDQSANGAAILHAYVQHTFGGGGSFLLAALIFIACLVTAVGLTCACAEFFAQYVPLSYRTLVFILGGFSMVVSNLGLSQLIQISVPVLTAIYPPCIALVVLSFTRSWWHNSSRVIAPPMFISLLFGILDGIKASAFSDILPSWAQRLPLAEQGLAWLMPTVVMVVLAIIWDRAAGRQVTSSAH |  |  |  | rate of leucine degradation with overexpression of BrnQ ([8]; LeuE and ilvC knockout strain with leuDH-kivD-padA on high copy plasmid, tet inducible brnQ on low copy plasmid): greatly improves the rate of leucine degradation
LAADPm: L-AAD derived from P. mirabilis (protein, Synthetic: L-AAD Nucleotide sequence, L-AAD derived from P. mirabilis) MAISRRKFILGGTVVAVAAGAGVLTPMLTREGRFVPGTPRHGFVEGTGGPLPKQDDVVVIGAGILGIMTAINLAERGLSVTIVEKGNIAGEQSSRFYGQAISYKMPDETFLLHHLGKHRWREMNAKVGIDTTYRTQGRVEVPLDEEDLENVRKWIDAKSKDVGSDIPFRTKMIEGAELKQRLRGATTDWKIAGFEEDSGSFDPEVATFVMAEYAKKMGIKIFTNCAARGLETQAGVISDVVTEKGPIKTSRVVVAGGVGSRLFMQNLNVDVPTLPAYQSQQLISAAPNAPGGNVALPGGIFFRDQADGTYATSPRVIVAPVVKESFTYGYKYLPLLALPDFPVHISLNEQLINSFMQSTHWDLNEESPFEKYRDMTALPDLPELNASLEKLKKEFPAFKESTLIDQWSGAMAIAPDENPIISDVKEYPGLVINTATGWGMTESPVSAEITADLLLGKKPVLDAKPFSLYRF |  |  |  | leucine degradation rate, comparison of adh2, yqhD, padA and of LAADPv, LAADPm ([8]; SYN469 background, with L-AAD and kivD): good alternative to LAADPV
